Source: ChEMBL document CHEMBL1152415, “Potent antitumor bifunctional DNA alkylating agents, synthesis and biological activities of 3a-aza-cyclopenta[a]indenes” (Bioorg Med Chem, 2009)
Calls of active or inactive are those of the source. The calls are words filed in the database; no cut-off is given here.

Key:
[1] = test system: MX1; assay: Antitumor activity in human MX1 cells xenografted athymic nu/nu mouse assessed as complete remission of tumor at 50 mg/kg, iv administered daily once for 3 days; type: functional, organism-based; design: dose 50 mg/kg
[2] = test system: Nucleic Acid; assay: Induction of pEGFP-N1 plasmid DNA interstrand cross-linking at 20 uM after 2 hrs by alkaline agarose gel shift assay; type: nucleic-acid assay
[3] = test system: MX1; assay: Antitumor activity in human MX1 cells xenografted athymic nu/nu mouse assessed as complete remission of tumor at 15 mg/kg, iv administered daily twice for 4 days; type: functional, organism-based; design: dose 15 mg/kg
[4] = test system: MX1; assay: Antitumor activity in human MX1 cells xenografted athymic nu/nu mouse assessed as tumor re-growth at 18 mg/kg, iv administered daily twice for 2 days measured after 40 days of tumor implantation; type: functional, organism-based; design: dose 18 mg/kg
[5] = test system: SK-OV-3; assay: Antitumor activity in human SKOV3 cells xenografted athymic nu/nu mouse assessed as tumor suppression at 20 mg/kg, iv administered daily once for 4 days measured after 22 days relative to control; type: functional
[6] = Toxicity in athymic nu/nu mouse assessed as maximum tolerated dose; type: organism-based; settings: in vivo, read-out: Activity
[7] = test system: MX1; assay: Antitumor activity in human MX1 cells xenografted athymic nu/nu mouse assessed as complete remission of tumor at 5 mg/kg, iv administered daily once for 3 days; type: functional, organism-based; design: dose 5 mg/kg
[8] = test system: CCRF-CEM; assay: Cytotoxicity against human taxol-resistant CCRF-CEM cells after 72 hrs by XTT assay; type: functional, cell-based
[9] = test system: Nucleic Acid; assay: Induction of pEGFP-N1 plasmid DNA interstrand cross-linking at 10 uM after 2 hrs by alkaline agarose gel shift assay; type: nucleic-acid assay
[10] = test system: HCT-116; assay: Cytotoxicity against human HCT116 cells after 72 hrs by SRB assay; type: functional, cell-based; settings: HCT-116, 72 h
[11] = test system: CCRF-CEM; assay: Cytotoxicity against human vinblastine-resistant CCRF-CEM cells after 72 hrs by XTT assay; type: functional, cell-based
[12] = test system: PC-3; assay: Cytotoxicity against human PC3 cells after 72 hrs by WST-1 assay; type: functional, cell-based; settings: PC-3, 72 h
[13] = Cytotoxicity against human H1299 cells after 72 hrs by WST-1 assay; type: functional, cell-based; settings: NCI-H1299, 72 h
[14] = Cytotoxicity against human U87 cells after 72 hrs by WST-1 assay; type: functional, cell-based, U-87MG ATCC; settings: U-87 MG
[15] = test system: Nucleic Acid; assay: Induction of pEGFP-N1 plasmid DNA interstrand cross-linking at 1 uM after 2 hrs by alkaline agarose gel shift assay; type: nucleic-acid assay
[16] = test system: MX1; assay: Antitumor activity in human MX1 cells xenografted athymic nu/nu mouse assessed as complete remission of tumor at 18 mg/kg, iv administered daily twice for 2 days; type: functional, organism-based; design: dose 18 mg/kg
[17] = Cytotoxicity against human OECM1 cells after 72 hrs by WST-1 assay; type: functional, cell-based; settings: OECM1, 72 h
[18] = test system: CCRF-CEM; assay: Cytotoxicity against human CCRF-CEM cells after 72 hrs by XTT assay; type: functional, cell-based; settings: read-out: IC50
[19] = test system: MX1; assay: Cytotoxicity against human MX1 cells after 72 hrs by SRB assay; type: functional, cell-based; settings: MX1, 72 h
[20] = test system: MX1; assay: Antitumor activity in human MX1 cells xenografted athymic nu/nu mouse assessed as complete remission of tumor at 50 mg/kg, iv administered daily once for 3 days measured after 24 days of tumor implantation; type: functional, organism-based; design: dose 50 mg/kg
[21] = test system: PC-3; assay: Antitumor activity in human PC3 cells xenografted athymic nu/nu mouse assessed as complete tumor suppression at 50 mg/kg, iv administered daily once for 4 days measured after day 14 to day 32; type: functional, organism-based; design: dose 50 mg/kg
[22] = test system: MX1; assay: Antitumor activity in human MX1 cells xenografted athymic nu/nu mouse assessed as tumor re-growth at 50 mg/kg, iv administered daily once for 3 days measured after 24 days of tumor implantation; type: functional, organism-based; design: dose 50 mg/kg
[23] = test system: CCRF-CEM; assay: Cross-resistance, IC50 for human vinblastine-resistant CCRF-CEM cells to IC50 for human CCRF-CEM cells; type: functional
[24] = test system: Mus musculus; assay: Toxicity in human PC3 cells xenografted athymic nu/nu mouse assessed as weight loss at 50 mg/kg, iv administered daily once for 4 days measured after day 14 to day 32 relative to control; type: organism-based, PC-3; design: dose 50 mg/kg, route intravenous; settings: in vivo, 96 h
[25] = test system: CCRF-CEM; assay: Cross-resistance, IC50 for human taxol-resistant CCRF-CEM cells to IC50 for human CCRF-CEM cells; type: functional
[26] = test system: SK-OV-3; assay: Antitumor activity in human SKOV3 cells xenografted athymic nu/nu mouse assessed as tumor suppression at 50 mg/kg, iv administered daily once for 3 days measured after 22 days relative to control; type: functional
[27] = test system: MX1; assay: Antitumor activity in human MX1 cells xenografted athymic nu/nu mouse assessed as complete remission of tumor at 5 mg/kg, iv administered daily once for 3 days measured after 22 days of tumor implantation; type: functional, organism-based; design: dose 5 mg/kg
[28] = test system: MX1; assay: Antitumor activity in human MX1 cells xenografted athymic nu/nu mouse assessed as complete remission of tumor at 15 mg/kg, iv administered daily twice for 4 days measured after 18 days of tumor implantation; type: functional, organism-based; design: dose 15 mg/kg

SMILES	Activity [1]	Activity [2]	Activity [3]	MTD [6]	Activity [7]	IC50 [8]	Activity [9]	IC50 [10]	IC50 [11]	IC50 [12]	IC50 [13]	IC50 [14]	Activity [15]	Activity [16]	IC50 [17]	IC50 [18]	IC50 [19]	Ratio IC50 [23]	Ratio IC50 [25]	further results
Cc1c(CO)c(CO)c2n1-c1ccccc1C2	Active	Active	Active	18 mg/kg	Active	32 nM	Active	340 nM	67 nM	19700 nM	15200 nM	19300 nM	Active	Active	860 nM	10 nM	360 nM			Activity [4]: inactive; Activity [5]: 53%
CCc1c(CO)c(CO)c2n1-c1ccccc1C2	Active	Active	Active	50 mg/kg	Active	140 nM	Active	830 nM	230 nM	16600 nM	14100 nM	18200 nM	Active	Active	1240 nM	360 nM	1100 nM	0.64	0.39	Activity [20]: Active; Activity [21]: Active; Activity [22]: inactive; Activity [24]: 15%; Activity [26]: 78%
CNC(=O)OCc1c(COC(=O)NC)c(-c2ccc(OC)cc2)n2c1Cc1ccccc1-2	Active	Active	Active	5 mg/kg	Active	70 nM	Active	2600 nM	63 nM	38200 nM	42600 nM	34400 nM	Active	Active	4630 nM	49 nM	1900 nM	1.3	1.4	Activity [27]: Active
CNC(=O)OCc1c(COC(=O)NC)c(-c2ccccc2OC)n2c1Cc1ccccc1-2	Active	Active	Active	15 mg/kg	Active	250 nM	Active	150 nM	360 nM				Active	Active		140 nM	1300 nM	2.7	1.8	Activity [28]: Active
